Data as given in patent US20120283216A1, “FUNGICIDAL 2-(BICYCLIC ARYLOXY)CARBOXAMIDES” (priority 2009, published 2012).

Columns and labels:
Type in all cases: in vivo
Botrytis cinerea = test: Test C: tomato botrytis, preventive spray on tomato seedlings, visual disease rating; conditions: preventive spray at 40 ppm, rated after 48 h + 3 days; for pest or weed control at 40 ppm: Botrytis cinerea, 120 h, read-out: Test C disease control rating (100 = 100% disease control, 0 = no disease control relative to the controls)
Outline: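 Compounds applied at 40 ppm (≈800 g/ha) in acetone/water with surfactant, sprayed to run-off on tomato seedlings. Inoculated next day with B. cinerea spores; 48 h saturated humidity at 20 °C, then 3 days at 27 °C. Visual rating as % disease control versus untreated controls.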

[1] = test system: Blumeria graminis f. sp. tritici; test: Test A: wheat powdery mildew, preventive spray on wheat seedlings, visual disease rating; conditions: preventive spray at 40 ppm, rated 8 days after inoculation; for pest or weed control at 40 ppm: Blumeria graminis, 192 h, read-out: Test A disease control rating (100 = 100% disease control, 0 = no disease control relative to the controls)
Outline: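 After 8 days in a 20° C. growth chamber, disease was scored visually as % control versus untreated (100 = full control). Plants had received a run-off spray of 40 ppm (≈800 g/ha label rate) in acetone/water plus surfactant, with spore-dust inoculation one day later.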

Septoria tritici = test: Test B: wheat leaf blotch, preventive spray on wheat seedlings, visual disease rating; conditions: preventive spray at 40 ppm, rated after 48 h + 19 days; for pest or weed control at 40 ppm: Zymoseptoria tritici, 504 h, read-out: Test B disease control rating (100 = 100% disease control, 0 = no disease control relative to the controls)
Outline: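 Visual ratings of percent disease control relative to untreated controls were made 19 days after a 48 h saturated-atmosphere incubation at 20° C. Plants had been spore-inoculated one day after a preventive run-off spray at 40 ppm, equivalent to 800 g/ha.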

SMILES | pest or weed control at 40 ppm (Botrytis cinerea) [%] | pest or weed control at 40 ppm [1] [%] | pest or weed control at 40 ppm (Septoria tritici) [%] | Test C disease control rating (100 = 100% disease control, 0 = no disease control relative to the controls) (Botrytis cinerea) [%] | Test A disease control rating (100 = 100% disease control, 0 = no disease control relative to the controls) [1] [%] | Test B disease control rating (100 = 100% disease control, 0 = no disease control relative to the controls) (Septoria tritici) [%]
CCC(Oc1ccc2ccc(Br)cc2c1)C(=O)NC(C)(C)COCOC (stereo not drawn) [Compound 20, 2-[(7-bromo-2-naphthalenyl)oxy]-N-[2-(methoxymethoxy)-1,1-dimethylethyl]butanamide] | 98 | 98 | 99 |  |  | 
CCC(Oc1cnc2ccc(I)cc2c1)C(=O)NC(C)(C)COC (single isomer, unassigned) [Compound 61] |  |  |  | 99 | 98 | 100
CCOC(Oc1ccc2ccc(OC)cc2c1)C(=O)NC(C)(C)COC (stereo not drawn) [Compound 113] |  |  |  | 99 | 97 | 100
C#CC(C)(C)NC(=O)C(OC)Oc1ccc2ccc(C(F)F)cc2c1 (stereo not drawn) [Compound 80] |  |  |  | 100 | 0 | 93
CC#Cc1ccc2ccc(OC(CC)C(=O)NC(C)(C)COC)cc2c1 (stereo not drawn) [Compound 107, N-(2-methoxy-1,1-dimethylethyl)-2-[[7-(1-propyn-1-yl)-2-naphthalenyl]oxy]butanamide] | 99 | 100 | 100 |  |  | 
CCC(Oc1ccc2ccc(C#N)cc2c1)C(=O)NC(C)(C)COC (stereo not drawn) [Compound 21] |  |  |  | 99 | 91 | 99
CCOC(Oc1ccc2ccc(OC)cc2c1)C(=O)NC(C)(C)C#N (stereo not drawn) [Compound 116] |  |  |  | 99 | 13 | 99
C#CC(C)(C)NC(=O)C(CC)Oc1ccc2ccc(OCOC)cc2c1 (stereo not drawn) [Compound 73] |  |  |  | 99 | 0 | 100
CCC(Oc1cnc2c(Cl)cc(Cl)cc2c1)C(=O)NC(C)(C)COC (stereo not drawn) [Compound 56] |  |  |  | 99 | 0 | 99
C#CC1(NC(=O)C(CC)Oc2ccc3ccc(OC)cc3c2)CCCCC1 (stereo not drawn) [Compound 85] | 99 | 0 | 84 |  |  | 
CCC(Oc1cnc2ccc(F)cc2c1)C(=O)NC(C)(C)C (stereo not drawn) [Compound 45] | 98 | 84 | 42 |  |  | 
CCC(Oc1ccc2ccc(Br)cc2c1)C(=O)NC(C)(C)C(F)(F)F (stereo not drawn) [Compound 27] |  |  |  | 98 | 99 | 86
CCC(Oc1ccc2ccc(Br)cc2c1)C(=O)NC(C)(C)CO (stereo not drawn) [Compound 16, 2-[(7-bromo-2-naphthalenyl)oxy]-N-(2-hydroxy-1,1-dimethylethyl)-butanamide] | 100 | 97 | 99 |  |  | 
C#Cc1ccc2ncc(OC(CC)C(=O)NC(C)(C)C)cc2c1 (stereo not drawn) [Compound 149] |  |  |  | 98 | 100 | 100
CC(=O)C(Oc1ccc2ccc(Br)cc2c1)C(=O)NC(C)(C)C (stereo not drawn) [Compound 32] | 26 | 0 | 0 |  |  | 
C#Cc1ccc2ncc(OC(CC)C(=O)NC(C)(C)C#N)cc2c1 (stereo not drawn) [Compound 152] |  |  |  | 94 | 88 | 100
CCC(C)(C)NC(=O)C(OC)Oc1ccc2ccc(Br)cc2c1 (stereo not drawn) [Compound 101] |  |  |  | 100 | 92 | 100
CCC(Oc1ccc2ccc(OC)cc2c1)C(=O)NC(C)(C)C(=O)OC (stereo not drawn) [Compound 84] |  |  |  | 100 | 0 | 84
